Values joined by “and” are separate entries in the source; they are usually repeats but may differ in a detail not shown here. Equal entries are not always repeated. Toxic doses and inconclusive results are not listed. Rule for the calls: active = survival T/C of 150% or more; inactive = T/C below 125% in these data.
Test system: BDF1 mice, L1210/MTX-resistant leukemia ip, survival T/C
Experiment: NCI In Vivo Anticancer Drug Screen. Data for tumor model L1210 Leukemia resistant to Methotrexate; NSC 740 (intraperitoneal) in B6D2F1 (BDF1) mice
Conditions: endpoint: mean survival time, higher = longer survival
Description: The antitumor activity of compounds was measured in mice bearing transplantable tumors. Survival or tumor size were measured and the results are expressed as the measurement made in the treated group (T) divided by the measurement made in the vehicle treated control group (C). The tumor model used in this assay is L1210 Leukemia resistant to Methotrexate; NSC 740 (intraperitoneal) in B6D2F1 (BDF1) mice

[1] = dose: 25.0 mg/kg/injection, schedule: Q01DX010 (ip), vehicle: saline
[2] = dose: 50.0 mg/kg/injection, schedule: Q01DX010 (ip), vehicle: saline
[3] = dose: 100.0 mg/kg/injection, schedule: Q01DX010 (ip), vehicle: saline
[4] = dose: 200.0 mg/kg/injection, schedule: Q01DX010 (ip), vehicle: saline
[5] = dose: 10.0 mg/kg/injection, schedule: Q01DX010 (ip), vehicle: saline
[6] = dose: 20.0 mg/kg/injection, schedule: Q01DX010 (ip), vehicle: saline

Measured: T/C

CCN(CC)CCNc1ccc(C)c2sc3ccccc3c(=O)c12
inactive: dose: 1.6 mg/kg/injection, schedule: Q01DX Z (ip), vehicle: methylcellulose (MC) 89 % of control and 93 % of control | dose: 3.2 mg/kg/injection, schedule: Q01DX Z (ip), vehicle: methylcellulose (MC) 93 % of control | dose: 6.3 mg/kg/injection, schedule: Q01DX Z (ip), vehicle: methylcellulose (MC) 93 % of control | dose: 20.0 mg/kg/injection, schedule: Q01DX Z (ip), vehicle: carboxymethylcellulose (CMC) 112 % of control | dose: 40.0 mg/kg/injection, schedule: Q01DX Z (ip), vehicle: carboxymethylcellulose (CMC) 106 % of control | [2] 124 % of control | dose: 80.0 mg/kg/injection, schedule: Q01DX Z (ip), vehicle: carboxymethylcellulose (CMC) 113 % of control | [4] 86 % of control
active: [1] 159 % of control | [3] 213 % of control

CC1CCOS(=O)O1 (centres undefined)
inactive: [5] 100 % of control | [6] 100 % of control | dose: 40.0 mg/kg/injection, schedule: Q01DX010 (ip), vehicle: saline 90 % of control

CSc1ncnc2c1ncn2C1OC(CO)C(O)C1O (centres undefined)
inactive: dose: 0.5 mg/kg/injection, schedule: Q01DX Z (ip), vehicle: saline 102 % of control | dose: 1.0 mg/kg/injection, schedule: Q01DX Z (ip), vehicle: saline 99 % of control | dose: 2.0 mg/kg/injection, schedule: Q01DX Z (ip), vehicle: saline 105 % of control | dose: 4.0 mg/kg/injection, schedule: Q01DX Z (ip), vehicle: saline 112 % of control | dose: 6.25 mg/kg/injection, schedule: Q01DX Z (ip), vehicle: saline 97 % of control | [5] 107 % of control | dose: 12.5 mg/kg/injection, schedule: Q01DX010 (ip), vehicle: saline 109 % of control | dose: 12.5 mg/kg/injection, schedule: Q01DX Z (ip), vehicle: saline 93 % of control | dose: 15.0 mg/kg/injection, schedule: Q01DX010 (ip), vehicle: saline 106 % of control | [6] 102 % of control

O=C(Nc1ccc(C2=NCCCN2)cc1)c1ccc(NC(=O)c2ccc(C3=NCCCN3)cc2)cc1
active: dose: 2.0 mg/kg/injection, schedule: Q01DX010 (ip), vehicle: other 168 % of control | dose: 4.0 mg/kg/injection, schedule: Q01DX010 (ip), vehicle: other 218 % of control and 257 % of control | dose: 8.0 mg/kg/injection, schedule: Q01DX010 (ip), vehicle: other 181 % of control and 221 % of control

O=c1[nH]c(=O)n(C2CC(O)C(CO)O2)cc1I (centres undefined)
inactive: dose: 3.75 mg/kg/injection, schedule: Q01DX Z (ip), vehicle: carboxymethylcellulose (CMC) 102 % of control | dose: 7.5 mg/kg/injection, schedule: Q01DX Z (ip), vehicle: carboxymethylcellulose (CMC) 108 % of control | dose: 15.0 mg/kg/injection, schedule: Q01DX Z (ip), vehicle: carboxymethylcellulose (CMC) 108 % of control | dose: 30.0 mg/kg/injection, schedule: Q01DX Z (ip), vehicle: carboxymethylcellulose (CMC) 106 % of control

CN(C)c1ccc(/C=C/c2ccnc3ccccc23)cc1
inactive: dose: 2.5 mg/kg/injection, schedule: Q01DX Z (ip), vehicle: saline 121 % of control | dose: 5.0 mg/kg/injection, schedule: Q01DX010 (ip), vehicle: saline 104 % of control | dose: 5.0 mg/kg/injection, schedule: Q01DX Z (ip), vehicle: saline 101 % of control | [5] 95 % of control

Cn1c(O)c(N=NC(N)=S)c2ccccc21
inactive: dose: 50.0 mg/kg/injection, schedule: Q01DX Z (ip), vehicle: carboxymethylcellulose (CMC) 96 % of control | dose: 100.0 mg/kg/injection, schedule: Q01DX Z (ip), vehicle: carboxymethylcellulose (CMC) 86 % of control

O=C1C(NC(=O)C2CCCCC2)=C(N2CC2)C(=O)C(NC(=O)C2CCCCC2)=C1N1CC1
inactive: dose: 11.0 mg/kg/injection, schedule: Q01DX010 (ip), vehicle: saline 89 % of control | dose: 22.0 mg/kg/injection, schedule: Q01DX010 (ip), vehicle: saline 101 % of control | [1] 112 % of control | dose: 44.0 mg/kg/injection, schedule: Q01DX010 (ip), vehicle: saline 98 % of control | [2] 108 % of control | dose: 88.0 mg/kg/injection, schedule: Q01DX010 (ip), vehicle: saline 95 % of control | [3] 109 % of control | [4] 109 % of control

Source: PubChem BioAssay AID284 (DTP/NCI, 2004)
